Marks after values point to notes of the source that are not given here.
Columns and labels:
[1] = system: Candida parapsilosus ATCC 22019; experiment: disk diffusion assay, inhibition zone; type: cell-based; conditions: C. parasilosus
Method: (§1) To evaluate antimicrobial activity of the compound 4, synthesized in our laboratory as novel anti-bacterial and anti-fungal agents, the inhibition zone diameter (mm) and the minimal inhibitory concentration were determined according to (Andrews 2001; Hudzicki 2009). The test carried out on several clinical microorganisms included Gram positive bacteria (Staphylococcus aureus ATCC and Streptococcus mutans ATCC 35668), Gram negative bacteria (Escherichia coli ATCC 25922, Salmonella typhimurium ATCC 14028 and Neisseria meningitides ATCC 1302); yeasts (Candid albicans ATCC 60193, Cryptococcus neoformans Wild strain and Candida parapsilosus ATCC 22019) and molds (Aspergillus fumigatus AUMC 8794, Penicillum chrysogenum AUMC 9476 and Fusarium sp.)
(§2) The clinical microorganisms were cultivated at least three times on suitable culture medium and incubating conditions before susceptibility test. The concentration of microbial inoculation suspensions in sterile sodium chloride solution (0.89%) were adjusted to 0.65 at 620 nm by spectrophotometer. […]
(§3) After that, the disks were dried at 25° C. under sterile conditions by safety biological cabinet. A Mueller-Hinton agar (MHA) (Scharlau Microbiogy, Spain) and a potato dextrose agar (PDA) (Scharlau, Spain) were used to perform antibacterial and antifungal test respectively. The media were prepared according to manufacturer's guidelines. To prepare one liter of MHA and one liter of PDA, 21 grams of MHA and 39 grams of PDA were dissolved in one liter of sterile distilled water, followed by sterilization at 121° C. for 15 minutes by an autoclave (HL-321, Taiwan). The sterilized media were poured in sterile plastic Petri dishes at 50° C. The plates were allowed to let the medium solidify at room temperature. 0.1 ml of microbial inoculation suspensions were spread on dried surface of medium and were kept at 25° C. for 5-10 minutes. The compound 4 and standard antimicrobial drugs discs (Table 1) were dispensed on the surface of inoculated media. The tested bacteria and fungi were incubated at 37±1° C. for 19-22 hours and at 25±1 for 48-72 hours respectively. After the incubation, the diameter of inhibition zone (millimeter) resulting from the biological activity of compound were recorded.

[2] = system: Candid albicans ATCC 60193; experiment: disk diffusion assay, inhibition zone; type: cell-based; conditions: Candida albicans, ATCC60193; C. albicans; 10 μg/disk; read-out: Inhibition zone diameter of standard antimicrobial agents
Method: as §1, §2, §3

[3] = system: Aspergillus fumigatus AUMC 8794; experiment: disk diffusion assay, inhibition zone; type: cell-based; conditions: Aspergillus fumigatus, AUMC8794; A. fumigatus; 10 μg/disk; read-out: Inhibition zone diameter of standard antimicrobial agents
Method: as §1, §2, §3

[4] = system: Cryptococcus neoformans Wild strain; experiment: disk diffusion assay, inhibition zone; type: cell-based; conditions: Cryptococcus neoformans; C. neoformasn; 10 μg/disk; read-out: Inhibition zone diameter of standard antimicrobial agents
Method: as §1, §2, §3

Fusarium sp. = experiment: disk diffusion assay, inhibition zone; type: cell-based; conditions: Fusarium sp.; 10 μg/disk; read-out: Inhibition zone diameter of standard antimicrobial agents
Method: as §1, §2, §3

[5] = system: Penicillum chrysogenum AUMC 9476; experiment: disk diffusion assay, inhibition zone; type: cell-based; conditions: P. chrysoginum; 10 μg/disk; read-out: Inhibition zone diameter of standard antimicrobial agents
Method: as §1, §2, §3

C. albicans = experiment: in vivo antifungal activity, candidemia in mice infected with C. albicans; set-up: species or system Albino male mice; conditions: C. albicans-infected mice; for daily body weight / % change in daily body weight / Food consumption / Mortality / Water consumption: oral 12 mg/kg then 6 mg/ml
Method: To confirm that the water soluble form of the compound 4 has a biological activity as a novel antimicrobial agent, effectiveness of the compound 4 as a drug to treat candidemia in mice was investigated. The experiment was performed in Experimental Animal Care Center (EACC), College of Pharmacy, King Saud University, Riyadh. Fifty Albino male mice, weighing nearly 30±2 gram were used. The mice were arranged in five groups, each including ten mice caged together, given water, and feed ad libitum. Negative control and control group were infected intravenously with 0.2 ml of C. albicans suspension (10^6 CFU/mouse) and 0.2 ml of sterile normal saline (0.89% Nacl) respectively. The group treated with standard drug (fluconazole) was infected intravenously with 0.2 ml of C. albicans suspension (10^6 CFU/mouse) and treated (orally) by 12 mg/kg of fluconazole (loading dose) on the first day followed by 6 mg/ml for 2 weeks. The group treated with the investigated compound 4 was infected intravenously with C. albicans at 10^6 CFU/mouse (0.2 ml) and treated (orally) by 12 mg/kg of the compound 4 (loading dose) on the first day followed by 6 mg/ml for 2 weeks. To study the biological effects of compound 4, a fifth group was designed. In this group the mice were treated intravenously (I. V) with 12 mg/kg of the compound 4 on the first day followed by 6 mg/ml for 2 weeks. All doses of the standard drug and compound 4 were given twice daily.
The effectiveness of the previous treatments on some biological concepts were evaluated. The biological parameters included daily body weight (gm), mortality (%), food consumption (g/day/mouse), water consumption (ml/day/mouse), serum glutamic oxaloacetic transaminase [SGOT(AST) (U/L)], serum glutamic-pyruvic transaminase [SGPT(ALT)(U/L)], alkaline phosphatase (U/L), gamma-glutamyl transferase (GGT) (U/L), bilirubin (mg/dl)], cholesterol (mg/dl), triglycerides (mg/dl), high-density lipoprotein (HDL) (mg/dl), very-low-density lipoprotein (VLDL) (mg/dl), low-density lipoprotein (LDL) (mg/dl), lactate dehydrogenase (LDH) (U/L), glucose (mg/dl), total protein (mg/dl), malondialdehyde (MDA) (nmol/g), nonprotein sulfyhydryl (NP-SH) (nmol/g). Addition hematologic constituents including white blood cells (WBC) (cell/mm^3), red blood cells (RBC) (10^6/mm^3), hemoglobin (HGB) (g/dL), HCT, Platelets (PLT) (10^3/mm^3), mean corpuscular volume (MCV) (fL), mean corpuscular hemoglobin (MCH) (pg), mean corpuscular hemoglobin concentration (MCHC) (g/dL), neutrophils (%), lymphocytes (%), eosinophils (%) and monocytes (%)] were evaluated (Classics Lowry et al. 1951; Utley et al. 1967; Sedlak et al. 1968). SGOT (AST), SGPT (ALT), ALP, GGT, bilirubin LDH and total protein were estimated using Reflotron Plus Analyzer and Roche kits (Roche Diagnostics GmbH, Mannheim Germany) and United diagnostic kits assay. Hematological tests were performed by Mindray BC-2800VET auto Hematology Analyzer.

[6] = blood, oral 12 mg/kg then 6 mg/ml for 2 weeks
[7] = liver tissue, oral 12 mg/kg then 6 mg/ml for 2 weeks
[8] = serum, oral 12 mg/kg then 6 mg/ml for 2 weeks

## Clc1ccccc1C(c1ccccc1)(c1ccccc1)n1ccnc1 [Canesten]
[1]
  susceptibility of the strain to the standard drug, in words: resistant
[1]; Candida, ATCC22019, 10 μg/disk, read-out: Inhibition zone diameter of standard antimicrobial agents
  zone of inhibition at 10 µg/disc: 0 mm
[2]
  zone of inhibition at 10 µg/disc: 26 mm
[3]
  zone of inhibition at 10 µg/disc: 23 mm
[4]
  zone of inhibition at 10 µg/disc: 25 mm
Fusarium sp.
  zone of inhibition at 10 µg/disc: 15 mm
[5]
  zone of inhibition at 10 µg/disc: 30 mm

## OC(Cn1cncn1)(Cn1cncn1)c1ccc(F)cc1F [fluconazole, reference compound]
C. albicans; day 0
  daily body weight: 19.70 ± 0.47 gm
C. albicans; day 1
  % change in daily body weight: 0.50%
  Food consumption: 4.3 g/day/mice
  Mortality: 0%
  Water consumption: 4.8 g/day/mice
  daily body weight: 19.80 ± 0.35 gm
C. albicans; day 2
  % change in daily body weight: 10.65%
  Food consumption: 4.3 g/day/mice
  Mortality: 0%
  Water consumption: 4.8 g/day/mice
  daily body weight: 21.80 ± 0.24 gm
C. albicans; day 3
  % change in daily body weight: 13.19%
  Food consumption: 4.5 g/day/mice
  Mortality: 0%
  Water consumption: 4.9 g/day/mice
  daily body weight: 22.30 ± 0.21 gm
C. albicans; day 4
  % change in daily body weight: 13.70%
  Food consumption: 4.6 g/day/mice
  Mortality: 0%
  Water consumption: 5.0 g/day/mice
  daily body weight: 22.40 ± 0.22 gm
C. albicans; day 5
  % change in daily body weight: 21.31%
  Food consumption: 4.6 g/day/mice
  Mortality: 0%
  Water consumption: 5.2 g/day/mice
  daily body weight: 23.90 ± 0.31 gm
C. albicans; day 6
  % change in daily body weight: 21.82%
  Food consumption: 4.7 g/day/mice
  Mortality: 0%
  Water consumption: 5.2 g/day/mice
  daily body weight: 24.00 ± 0.29 gm
C. albicans; day 7
  % change in daily body weight: 22.95%
  Food consumption: 5.0 g/day/mice
  Mortality: 10%
  Water consumption: 5.1 g/day/mice
  daily body weight: 24.22 ± 0.22 gm
C. albicans; day 8
  % change in daily body weight: 24.08%
  Food consumption: 5.1 g/day/mice
  Mortality: 10%
  Water consumption: 5.2 g/day/mice
  daily body weight: 24.44 ± 0.24 gm
C. albicans; day 9
  % change in daily body weight: 24.36%
  Food consumption: 4.7 g/day/mice
  Mortality: 20%
  Water consumption: 5.2 g/day/mice
  daily body weight: 24.50 ± 0.18 gm
C. albicans; day 10
  % change in daily body weight: 26.29%
  Food consumption: 5.00 g/day/mice
  Mortality: 20%
  Water consumption: 5.3 g/day/mice
  daily body weight: 24.87 ± 0.29 gm
C. albicans; day 11
  % change in daily body weight: 28.17%
  Food consumption: 5.1 g/day/mice
  Mortality: 20%
  Water consumption: 5.3 g/day/mice
  daily body weight: 25.25 ± 0.25 gm
C. albicans; day 12
  % change in daily body weight: −28.80%
  Food consumption: 5.62 g/day/mice
  Mortality: 20%
  Water consumption: 5.5 g/day/mice
  daily body weight: 25.37 ± 0.26 gm
C. albicans; day 13
  % change in daily body weight: 31.97%
  Food consumption: 5.2 g/day/mice
  Mortality: 30%
  Water consumption: 5.4 g/day/mice
  daily body weight: 26.00 ± 0.30 gm
C. albicans; day 14
  % change in daily body weight: 33.43%
  Food consumption: 5.2 g/day/mice
  Mortality: 30%
  Water consumption: 5.4 g/day/mice
  daily body weight: 26.28 ± 0.28 gm
C. albicans; day 15
  % change in daily body weight: 35.60%
  Food consumption: 5.5 g/day/mice
  Mortality: 30%
  Water consumption: 5.7 g/day/mice
  daily body weight: 26.71 ± 0.28 gm
C. albicans; [6]
  Eosinophils Mean ± SE: 1.61 ± 0.10%
  HCT Mean ± SE: 35.05 ± 1.5
  HGB Mean ± SE: 11.1 ± 0.18 g/dL
  Lymphocytes Mean ± SE: 6.2 ± 0.1%
  MCH Mean ± SE: 28.2 ± 0.7 pg
  MCHC Mean ± SE: 24.3 ± 0.5 g/dL
  MCV Mean ± SE: 72.04 ± 2.6 fL
  Monocytes Mean ± SE: 1.06 ± 0.02%
  Neutrophils Mean ± SE: 25.9 ± 0.5%
  PLT Mean ± SE: 563.8 ± 17.4 10^3/mm^3
  RBC Mean ± SE: 7.50 ± 0.23 10^6/mm^3
  WBC Mean ± SE: 8233.2 ± 83.7 Cell/mm^3
C. albicans; [7]
  MDA: 2.33 ± 0.07***^b nmol/g
  NP-SH: 4.21 ± 0.18***^b nmol/g
  Total Protein: 92.72 ± 1.54***^b g/l
C. albicans; [8]
  Alkaline phosphatase Mean ± SE: 321.28 ± 6.91 U/L
  Bilirubin Mean ± SE: 0.75 ± 0.03 mg/dL
  Cholesterol Mean ± SE: 134.8 ± 3.6 mg/dL
  GGT Mean ± SE: 5.60 ± 0.17 U/L
  Glucose level Mean ± SE: 143.85 ± 2.47***^b mg/dl
  HDL Mean ± SE: 29.8 ± 0.9 mg/dL
  LDH Mean ± SE: 184.92 ± 5.08***^b U/L
  LDL Mean ± SE: 83.9 ± 3.3 mg/dL
  SGOT(AST) Mean ± SE: 143.28 ± 2.88 U/L
  SGPT(ALT) Mean ± SE: 50.48 ± 3.17 U/L
  Triglycerides Mean ± SE: 105.1 ± 2.2 mg/dL
  VLDL Mean ± SE: 21.0 ± 0.4 mg/dL

Reference: patent US9988348B1, “Synthesis and antimicrobial use of a trithiocarbonate derivative” (KING SAUD UNIVERSITY, priority 2017, dated 2018)
